# Experimental data reported in patent publication US12215100B2, “Anticancer compounds” (Pharma Mar, S.A., priority 2018, dated 2025).
# Tests used:
# Assay type in all cases: cell-based, human
# PSN-1 = assay: SRB colorimetric cytotoxicity assay, PSN-1; conditions: Homo sapiens, pancreatic adenocarcinoma
# Source text: (§1) The aim of this assay is to evaluate the in vitro cytostatic (ability to delay or arrest tumor cell growth) or cytotoxic (ability to kill tumor cells) activity of the samples being tested.
# (§2) A colorimetric assay, using sulforhodamine B (SRB) reaction has been adapted to provide a quantitative measurement of cell growth and viability (following the technique described by V. Vichai and K. Kirtikara (2006) Nature Protoc. 1, 1112-1116.)
# (§3) This form of assay employs 96-well cell culture microplates. All the cell lines used in this study were obtained from the American Type Culture Collection (ATCC), unless otherwise indicated, and derive from different types of human cancer.
# (§4) Cells were maintained in Dulbecco's Modified Eagle Medium (DMEM) (for A549, HT-29 and MDA-MB-231) or RPMI (for PSN-1) supplemented with 10% Fetal Bovine Serum (FBS), 2 mM L-glutamine, 100 U/mL penicillin and 100 U/mL streptomycin at 37° C., 5% CO2 and 98% humidity. For the experiments, cells were harvested from subconfluent cultures using trypsinization and resuspended in fresh medium before counting and plating.
# (§5) Cells were seeded in 96 well microtiter plates, at 5×10^3 cells per well in aliquots of 150 μL, and allowed to attach to the plate surface for 18 hours (overnight) in drug free medium. After that, one control (untreated) plate of each cell line was fixed (as described below) and used for time zero reference value. […] After 72 hours treatment, the antitumor effect was measured by using the SRB methodology: Briefly, cells were washed twice with PBS, fixed for 15 min in 1% glutaraldehyde solution at room temperature, rinsed twice in PBS, and stained in 0.4% SRB solution for 30 min at room temperature. Cells were then rinsed several times with 1% acetic acid solution and air-dried at room temperature. SRB was then extracted in 10 mM trizma base solution and the absorbance measured in an automated spectrophotometric plate reader at 490 nm. Effects on cell growth and survival were estimated by applying the NCI algorithm (Boyd M R and Pauli K D. Drug Dev Res. 1995, 34, 91-104).
# (§6) Using the mean±SD of triplicates, a dose-response curve was automatically generated using nonlinear regression analysis to a 4-parameter logistic curve. Three reference parameters were calculated (NCI algorithm) by automatic interpolation: GI50=compound concentration that produces 50% cell growth inhibition, as compared to control cultures; TGI=total cell growth inhibition (cytostatic effect), as compared to control cultures, and LC50=compound concentration that produces 50% net cell killing (cytotoxic effect).
# HT29 = assay: SRB colorimetric cytotoxicity assay, HT29; conditions: Homo sapiens, colorectal adenocarcinoma
# Source text: as §1, §2, §3, §4, §5, §6
# A549 = assay: SRB colorimetric cytotoxicity assay, A549; conditions: Homo sapiens, lung carcinoma (NSCLC)
# Source text: as §1, §2, §3, §4, §5, §6
# MDA-MB-231 = assay: SRB colorimetric cytotoxicity assay, MDA-MB-231; conditions: Homo sapiens, breast adenocarcinoma
# Source text: as §1, §2, §3, §4, §5, §6
# [1] = HT-29, 72 h, 72 hours treatment
# [2] = MDA-MB-231, 72 h, 72 hours treatment
Compound,"GI50 (PSN-1; PSN1, 72 h, 72 hours treatment)",GI50 (HT29; [1]),"GI50 (A549; A549, 72 h, 72 hours treatment)",GI50 (MDA-MB-231; [2]),"GI50 (PSN-1; PSN1, 72 hours treatment)","GI50 (HT29; HT-29, 72 hours treatment)","GI50 (A549; A549, 72 hours treatment)","GI50 (MDA-MB-231; MDA-MB-231, 72 hours treatment)"
CCC[C@@H](NC(=O)[C@]1(C)CSC(/C(C)=N/O)=N1)c1cc(O)cc(=O)[nH]1 [Compound 82],355 nM,491 nM,1640 nM,1120 nM,–,–,–,–
CCCCCCCCCCCCCCCCCOc1cc([C@@H](CCC)NC(=O)[C@]2(C)CSC(C(C)=O)=N2)oc(=O)c1 [Compound 62],1640 nM,1100 nM,1610 nM,1690 nM,–,–,–,–
CCC[C@@H](NC(=O)[C@]1(C)CSC(/C(C)=N/OCCCCO[Si](C)(C)C(C)(C)C)=N1)c1cc(OCC2CC2)cc(=O)o1 [Compound 148],–,–,–,–,296 nM,59.2 nM,263 nM,247 nM
CCC[C@@H](NC(=O)[C@]1(C)CSC(/C(C)=N/O[C@H]2O[C@H](CO)[C@@H](O)[C@H](O)[C@@H]2O)=N1)c1cc(OCC2CC2)cc(=O)o1 [Compound 181],6850 nM,4970 nM,> 17100 nM,6340 nM,–,–,–,–
CCCCOc1cc([C@@H](CCC)NC(=O)[C@]2(C)CSC(/C(C)=N/O)=N2)oc(=O)c1 [Compound 71],10.4 nM,7.56 nM,7.08 nM,14.4 nM,–,–,–,–
CCC[C@@H](NC(=O)[C@]1(C)CSC(/C(C)=N/OCCCCO[Si](C)(C)C(C)(C)C)=N1)c1cc(OC)cc(=O)o1 [Compound 146],–,–,–,–,2110 nM,1020 nM,1940 nM,2820 nM
C=CCOc1cc([C@@H](CCC)NC(=O)[C@]2(C)CSC(C(C)=O)=N2)oc(=O)c1 [Compound 63],408 nM,510 nM,815 nM,484 nM,–,–,–,–
CCCCOc1cc([C@@H](CCC)NC(=O)[C@]2(C)CSC(/C(C)=N\O)=N2)oc(=O)c1 [Compound 71a],30.7 nM,17 nM,16.5 nM,35.4 nM,–,–,–,–
CCC[C@@H](NC(=O)[C@]1(C)CSC(/C(C)=N/N)=N1)c1cc(OC)cc(=O)o1 [Compound 99],920 nM,447 nM,578 nM,657 nM,–,–,–,–
CCC[C@@H](NC(=O)[C@]1(C)CSC(/C(C)=N/O[C@H]2O[C@H](CO)[C@@H](O)[C@@H]3OC(C)(C)O[C@H]23)=N1)c1cc(OCC2CC2)cc(=O)o1 [Compound 180],529 nM,369 nM,593 nM,417 nM,–,–,–,–
CCCCCCCOc1cc([C@@H](CCC)NC(=O)[C@]2(C)CSC(/C(C)=N\O)=N2)oc(=O)c1 [Compound 72a],125 nM,183 nM,110 nM,103 nM,–,–,–,–
COc1cc([C@@H](CCC(F)(F)F)NC(=O)[C@]2(C)CSC(/C(C)=N/O)=N2)oc(=O)c1 [Compound 140],643 nM,344 nM,666 nM,459 nM,–,–,–,–
CCC[C@@H](NC(=O)[C@]1(C)CSC(/C(C)=N/O)=N1)c1cc(OC)cc(=O)o1 [Compound 1],28.8 nM,14.4 nM,11.5 nM,34.1 nM,–,–,–,–
C=CCOc1cc([C@@H](CCC)NC(=O)[C@]2(C)CSC(/C(C)=N/OC(=O)CCCCCNC(=O)OC(C)(C)C)=N2)oc(=O)c1 [Compound 165],6.44 nM,5.32 nM,5.48 nM,7.41 nM,–,–,–,–
CCC[C@@H](NC(=O)[C@]1(C)CSC(/C(C)=N/OCCCCO)=N1)c1cc(OCC2CC2)cc(=O)o1 [Compound 149],13.6 nM,6.28 nM,6.69 nM,8.91 nM,–,–,–,–
CCC[C@@H](NC(=O)[C@@]1(C)CSC(/C(C)=N/O)=N1)c1cc(OC)cc(=O)o1 [Compound 135],1260 nM,1260 nM,2460 nM,2330 nM,–,–,–,–
CCC[C@@H](NC(=O)[C@]1(C)CSC(/C(C)=N/OCCCCO)=N1)c1cc(OC)cc(=O)o1 [Compound 147],243 nM,137 nM,148 nM,287 nM,–,–,–,–
CCC[C@@H](NC(=O)[C@]1(C)COC(/C(C)=N/O)=N1)c1cc(OC)cc(=O)o1 [Compound 106],1560 nM,712 nM,1010 nM,876 nM,–,–,–,–
